The text below walks through data of US12497386B2, “Estrogen receptor-modulating compounds” (RADIUS PHARMACEUTICALS, INC., priority 2018, dated 2025).

In general, IC50 refers to the concentration that gives 50% inhibition. A lower IC50 goes with greater potency.

SMILES strings stand for the structures.

The first experiment deals with MCF-7 cells. In words: MCF-7 Proliferation Inhibition Assay. It counts as cell-based, human. The settings on record: 10 pM dose of E2, 7 days incubation, CellTiterGlo viability. How it is done: Proliferation Assay in MCF-7 and T47D Cells
MCF-7 and T47D cells were stripped for 3 days in phenol red-free RPMI1640 media containing 10% charcoal-stripped fetal bovine serum (CS-FBS) and 1% Penicillin/streptomycin (P/S). Cells (volume of 90 μl/well) were seeded in 96 well plates at a density of 2500 cells/well for MCF-7 cells and 1500 cells/well for T47D cells. On the following day, plates were treated with the test compounds (10× concentration in media, volume of 10 μl/well added) both in the absence and in the presence of two doses of E2 (10 pM and 1 nM). The cells were incubated with test compounds for 7 days. The viability of the cells was assessed using CellTiterGlo (Promega, Cat #G7573) according to the manufacturer's instructions. Growth inhibition curves and IC50 values were calculated using the GraphPadPrism 6.0 software. Data values shown in Table 1 were obtained using the 10 pM dose of E2.
Turning to `CCCNCCc1ccc(Cn2c(-c3ccccc3C)c(F)c3cc(O)ccc32)cc1` [Compound D-67, 3-Fluoro-1-(4-(2-(propylamino)ethyl)benzyl)-2-(o-tolyl)-1H-indol-5-01], the IC50 is less than 1 nM. The compound `CCCCNCCc1ccc(Cn2c(-c3ccccc3C)c(F)c3cc(O)ccc32)cc1` [Compound D-68, 1-(4-(2-(Butylamino)ethyl)benzyl)-3-fluoro-2-(o-tolyl)-1H-indol-5-01] showed an IC50 of less than 1 nM.

The experiment is the same for the next values; noted with them: Homo sapiens, MCF7, 168 h, 10 pM dose of E2, 7 days incubation, CellTiterGlo viability.
For `Cc1ccccc1-c1sc2cc(O)ccc2c1Oc1ccc(CCNC2CC2)cc1` [BT-05, 3-(4-(2-(Cyclopropylamino)ethyl)phenoxy)-2-(o-tolyl)benzo[b]thiophen-6-ol], the IC50 was less than 1 nM. For `Cc1ccccc1-c1sc2cc(O)ccc2c1Oc1ccc(CCNCC2CC2)cc1` [BT-12, 3-(4-(2-((Cyclopropylmethyl)amino)ethyl)phenoxy)-2-(o-tolyl)benzo[b]thiophen-6-ol], the IC50 is less than 1 nM. Same read-out and setting: for `CCCN1CC(=Cc2ccc(Oc3c(-c4ccccc4C)sc4cc(O)ccc34)cc2)C1` [BT-17, 3-(4-((1-Propylazetidin-3-ylidene)methyl)phenoxy)-2-(o-tolyl)benzo[b]thiophen-6-ol] the value was less than 1 nM; for `Cc1ccccc1C1=C(Cc2ccc(CCNC3CC3)cc2)c2ccc(O)cc2OCC1` [Bx-06, 5-(4-(2-(Cyclopropylamino)ethyl)benzyl)-4-(o-tolyl)-2,3-dihydrobenzo[b]oxepin-8-ol], less than 1 nM. `CCNCCc1ccc(CC2=C(c3ccccc3C)CCOc3cc(O)ccc32)cc1` [Bx-07, 5-(4-(2-(Ethylamino)ethyl)benzyl)-4-(o-tolyl)-2,3-dihydrobenzo[b]oxepin-8-ol]: the half-maximal inhibitory concentration (IC50) was less than 1 nM. In turn, `CCNCCc1ccc(Cn2c(-c3ccc(OC)cc3)c(C)c3cc(O)ccc32)cc1` [Compound D-01, 1-(4-(2-(Ethylamino)ethyl)benzyl)-2-(4-methoxyphenyl)-3-methyl-1H-indol-5-ol] showed a half-maximal inhibitory concentration (IC50) of 1 to 10 nM.

The compound `COc1ccc(-c2c(C)c3cc(O)ccc3n2Cc2ccc(CCNC3CC3)cc2)cc1` [Compound D-02, 1-(4-(2-(Cyclopropylamino)ethyl)benzyl)-2-(4-methoxyphenyl)-3-methyl-1H-indol-5-ol] showed an IC50 of 1 to 10 nM.

Turning to `COc1ccc(-c2c(C)c3cc(O)ccc3n2Cc2ccc(CCNCC3CC3)cc2)cc1` [Compound D-03, 1-(4-(2-((Cyclopropylmethyl)amino)ethyl)benzyl)-2-(4-methoxyphenyl)-3-methyl-1H-indol-5-ol], the IC50 lay within 1 to 10 nM. `COc1ccc(-c2c(C)c3cc(O)ccc3n2Cc2ccc(CCNC(C)C)cc2)cc1` [Compound D-08, 1-(4-(2-(Isopropylamino)ethyl)benzyl)-2-(4-methoxyphenyl)-3-methyl-1H-indol-5-ol] had an IC50 of 1 to 10 nM. As for `COc1ccc(-c2c(C)c3cc(O)ccc3n2Cc2ccc(CCNCC(F)(F)F)cc2)cc1` [Compound D-12, 2-(4-Methoxyphenyl)-3-methyl-1-(4-(2-((2,2,2-trifluoroethyl)amino)ethyl)benzyl)-1H-indol-5-ol], the half-maximal inhibitory concentration (IC50) is more than 10 nM. Still for that read-out and setting: then `CCNCCc1ccc(Cn2c(-c3ccc(OC)cc3)c(Cl)c3cc(O)ccc32)cc1` [Compound D-13, 3-Chloro-1-(4-(2-(ethylamino)ethyl)benzyl)-2-(4-methoxyphenyl)-1H-indol-5-ol], with 1 to 10 nM. As to `COc1ccc(-c2c(F)c3cc(O)ccc3n2Cc2ccc(CCNC3CC3)cc2)cc1` [Compound D-15, 1-(4-(2-(Cyclopropylamino)ethyl)benzyl)-3-fluoro-2-(4-methoxyphenyl)-1H-indol-5-ol], the 50% inhibitory concentration (IC50) is less than 1 nM. Compound `CCNCCc1ccc(Cn2c(-c3ccc(OC)cc3)c(F)c3cc(O)ccc32)cc1` [Compound D-16, 1-(4-(2-(Ethylamino)ethyl)benzyl)-3-fluoro-2-(4-methoxyphenyl)-1H-indol-5-ol] registered a concentration for half-maximal inhibition (IC50) of less than 1 nM. `Cc1ccccc1-c1c(F)c2cc(O)ccc2n1Cc1ccc(CCNC2CC2)cc1` [Compound D-28, 1-(4-(2-(Cyclopropylamino)ethyl)benzyl)-3-fluoro-2-(o-tolyl)-1H-indol-5-ol] displayed a concentration for half-maximal inhibition (IC50) of less than 1 nM. Still for that read-out and setting: then `CCNCCc1ccc(Cn2c(-c3ccccc3C)c(F)c3cc(O)ccc32)cc1` [Compound D-29, 1-(4-(2-(Ethylamino)ethyl)benzyl)-3-fluoro-2-(o-tolyl)-1H-indol-5-ol], with less than 1 nM; and `Cc1ccccc1-c1c(F)c2cc(O)ccc2n1Cc1ccc(CC(C)NC2CC2)cc1` [Compound D-32, 1-(4-(2-(Cyclopropylamino)propyl)benzyl)-3-fluoro-2-(o-tolyl)-1H-indol-5-ol], with less than 1 nM. Take `Oc1ccc2c(c1)c(F)c(-c1ccccc1C(F)(F)F)n2Cc1ccc(CCNC2CC2)cc1` [Compound D-33, 1-(4-(2-(Cyclopropylamino)ethyl)benzyl)-3-fluoro-2-(2-(trifluoromethyl)phenyl)-1H-indol-5-ol]: the IC50 was less than 1 nM.

On to `CCNCCc1ccc(Cn2c(-c3ccccc3C(F)(F)F)c(F)c3cc(O)ccc32)cc1` [Compound D-34, 1-(4-(2-(Ethylamino)ethyl)benzyl)-3-fluoro-2-(2-(trifluoromethyl)phenyl)-1H-indol-5-ol], for which the IC50 was less than 1 nM. Compound `Cc1cc(F)ccc1-c1c(F)c2cc(O)ccc2n1Cc1ccc(CCNC2CC2)cc1` [Compound D-36, 1-(4-(2-(Cyclopropylamino)ethyl)benzyl)-3-fluoro-2-(4-fluoro-2-methylphenyl)-1H-indol-5-ol] showed a half-inhibitory concentration (IC50) of less than 1 nM. The same measure, in the same setting: for `Oc1ccc2c(c1)c(F)c(-c1ccccc1Cl)n2Cc1ccc(CCNC2CC2)cc1` [Compound D-37, 2-(2-Chlorophenyl)-1-(4-(2-(cyclopropylamino)ethyl)benzyl)-3-fluoro-1H-indol-5-ol] the value was less than 1 nM; for `Cc1ccccc1-c1c(F)c2cc(O)ccc2n1Cc1ccc(CCNCC2CC2)cc1` [Compound D-39, 1-(4-(2-((Cyclopropylmethyl)amino)ethyl)benzyl)-3-fluoro-2-(o-tolyl)-1H-indol-5-ol], less than 1 nM. Same read-out and setting: then `Oc1ccc2c(c1)c(F)c(-c1ccccc1C(F)(F)F)n2Cc1ccc(CCNCC2CC2)cc1` [Compound D-40, 1-(4-(2-((Cyclopropylmethyl)amino)ethyl)benzyl)-3-fluoro-2-(2-(trifluoromethyl)phenyl)-1H-indol-5-ol], with less than 1 nM; and `Cc1ccccc1-c1c(F)c2cc(O)ccc2n1Cc1ccc(CCNC2CCC2)cc1` [Compound D-46, 1-(4-(2-(Cyclobutylamino)ethyl)benzyl)-3-fluoro-2-(o-tolyl)-1H-indol-5-ol], with less than 1 nM. The same measure, in the same setting: for `Cc1cccc(C)c1-c1c(F)c2cc(O)ccc2n1Cc1ccc(CCNC2CCC2)cc1` [Compound D-50, 1-(4-(2-(Cyclobutylamino)ethyl)benzyl)-2-(2,6-dimethylphenyl)-3-fluoro-1H-indol-5-ol] the value was less than 1 nM. With `Cc1cc(O)ccc1-c1c(F)c2cc(O)ccc2n1Cc1ccc(CCNC2CC2)cc1` [Compound D-52, 1-(4-(2-(Cyclopropylamino)ethyl)benzyl)-3-fluoro-2-(4-hydroxy-2-methylphenyl)-1H-indol-5-ol], the IC50 is less than 1 nM. In the case of `CCCNCCc1ccc(Cn2c(-c3ccccc3-c3ccccc3)c(F)c3cc(O)ccc32)cc1` [Compound D-66, 2-([1,1′-Biphenyl]-2-yl)-3-fluoro-1-(4-(2-(propylamino)ethyl)benzyl)-1H-indol-5-ol], the IC50 was less than 1 nM.
